Measured values from patent publication EP4682145A1, “BENZOHETEROCYCLIC COMPOUND, AND PREPARATION METHOD THEREFOR AND USE THEREOF” (Cascade Pharmaceuticals, Inc., priority 2023, dated 2024).
pEC50: −log10 of the molar value.

Experiments:
human FFAR1 (GPR40) = molecular target: T1, human FFAR1 (GPR40) (Homo sapiens, UniProt O14842); assay: NFAT-RE-based reporter gene activity assay (Dual-Glo luciferase) for GPR40 agonistic activity in co-transfected HEK293T cells; assay type: cell-based; settings: 4-hour treatment; for Efficacy (%): class symbols
T1 construct: Flag; expressed in transfected cells; host or cells: HEK293T
How it was run: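 Agonism read as NFAT-RE-driven firefly luciferase over Renilla control (Dual-Glo) after 4 h compound exposure, top concentration 1 µM, 10 half-log steps.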

[1] = Pharmacokinetic evaluation in ICR mice (intravenous and gavage); assay type: in vivo; settings: for CL_obs / Vss_obs / half-life: Intravenous Administration (5 mg/kg); for bioavailability: gavage 10 mg/kg versus intravenous 5 mg/kg
Description: The bioavailability and pharmacokinetic behavior of the compounds were evaluated in mice. 6 male ICR mice with similar body weights were selected, among which 3 mice were administered a single gavage dose of 10 mg/kg, and the other 3 mice were intravenously administered a single dose of 5 mg/kg. Blood samples were collected at 5 minutes (intravenous administration), 15 minutes, 30 minutes, 1 hour, 2 hours, 4 hours, and 7 hours after administration. The plasma samples were analyzed for concentration by LCMS/MS, and the pharmacokinetic parameters of the compounds were analyzed using the PKSolver free tool and non-compartmental analysis (NCA) software.
Experimental animals: Each compound test group included 6 healthy male ICR mice, weighing 18-25 g, purchased from Charles River, which were randomly divided into 2 groups with 3 mice each.
Preparation of formulations: A certain amount of the compound was weighed and added to 2% DMSO + 15% Solutol + 83% physiological saline to form a clear solution.
Dosage: ICR mice were fasted overnight and administered the compound at a dose of 10 mg/kg via gavage or 5 mg/kg via intravenous injection. The dosing volumes for gavage and intravenous administration were 10 mL/kg and 5 mL/kg, respectively. Uniform feeding was conducted 2 hours after administration.
Sample collection: Approximately 30 µL of blood was collected from the great saphenous vein at 5 minutes (intravenous administration), 15 minutes, 30 minutes, 1 hour, 2 hours, 4 hours, and 7 hours after administration. The blood was placed into commercially available tubes containing K2-EDTA. The blood samples were then centrifuged at 4°C and 4600 rpm for 5 minutes to obtain plasma samples. All plasma samples were rapidly frozen on dry ice and maintained at -70°C until LCMS/MS analysis was performed.
Sample preparation: 10 µL of plasma sample was aspirated and precipitated with a methanol solution containing 50 nmol/L of α-naphthoflavone (internal standard). The mixture was thoroughly mixed and centrifuged at 4°C and 14000 rpm for 5 minutes. Then, 75 µL of the supernatant was mixed with 75 µL of methanol for LCMS/MS analysis.

[2] = Tissue distribution evaluation in ICR mice; assay type: in vivo; settings: oral gavage 5 mg/kg, 1 hour after administration
Description: Experimental protocol: The tissue distribution characteristics of the compounds were evaluated in mice. 2 male ICR mice with similar body weights were selected, and the compound was administered via oral gavage at a dose of 5 mg/kg. The animals were sacrificed at 1 hour, and blood, liver, and heart were collected. After sample processing, the concentration of the compounds in each matrix was analyzed by LCMS/MS, and the average values of each group were calculated to evaluate the tissue/plasma ratio of the compounds.
Experimental animals: 2 healthy male ICR mice were purchased from Charles River.
Preparation of formulations: A certain amount of the compound was weighed and added to 2% DMSO + 15% Solutol + 83% distilled water to form a clear solution.
Dosage: ICR mice were fasted overnight and administered the compound via oral gavage at a dose of 5 mg/kg. The volume of oral gavage administration was 10 mL/kg. Uniform feeding was conducted 2 hours after administration.
Sample collection: Animals were sacrificed 1 hour after administration, and blood, liver, and heart tissues were collected. The blood was placed into commercially available tubes containing K2-EDTA. The blood samples were then centrifuged at 4°C and 4600 rpm for 5 minutes to obtain plasma samples. All plasma and tissue samples were rapidly frozen on dry ice and maintained at -70°C until LCMS/MS analysis was performed.
Sample preparation: 50 µL of the plasma sample was aspirated, precipitated with methanol, thoroughly mixed, and centrifuged at 4°C and 14000 rpm for 5 minutes. Then, 75 µL of the supernatant was mixed with 75 µL of methanol for LCMS/MS analysis. Tissue samples were homogenized using methanol. After homogenization, the mixture was centrifuged at 14,000 rpm for 5 minutes at 4°C. Subsequently, 75 µL of the supernatant was mixed with 75 µL of methanol for LCMS/MS analysis.

normal C57BL6/J mice = assay: Oral glucose tolerance test (OGTT) in normal C57BL6/J mice; assay type: in vivo; settings: 1 mg/kg gavage, single dose; for AUC 0-120 minutes: blood glucose AUC
Description: Eighteen normal male C57BL6/J mice (8-9 weeks old) were selected and randomly divided into 3 groups based on body weight and blood glucose levels, with 6 mice in each group. On the day of the OGTT, fasting was initiated at 8:30 AM. At 11:30 AM, drug interventions were administered via gavage (vehicle control, compound 14, 1 mg/kg, and compound 169, 1 mg/kg). At 1:30 PM, glucose (2 g/kg) was administered via gavage, while the blank control group received the vehicle control orally (2% DMSO + 15% solutol + 83% DDW solution) at a dosing volume of 10 mL/kg. Blood glucose measurements during the OGTT were taken at the following time points: 0, 15, 30, 60, 90, and 120 minutes after glucose administration.
Blood glucose levels were measured at 0, 15, 30, 60, and 120 minutes after glucose administration. The area under the curve (AUC) for blood glucose over 120 minutes was calculated. [formula]
Note: BG0, BG15, BG30, BG60, BG90, and BG120 represent the blood glucose levels at 0, 15, 30, 60, 90, and 120 minutes after glucose administration, respectively.
(§1) Data were expressed as mean ± standard deviation. One-way ANOVA was employed for statistical analysis, with p < 0.05 considered statistically significant.

[3] = test system: normal male C57BL6/J mice; assay: In vivo hypoglycemia risk assay in fasted normal C57BL6/J mice; settings: mouse, in vivo, po, 10 mg/kg
Description: The blank control group was orally administered with the vehicle control (2% DMO + 15% solutol + 83% DDW solution), with a dosing volume of 10 mL/kg. […] […] Data were expressed as mean ± standard deviation. One-way ANOVA was employed for statistical analysis, with p < 0.05 considered statistically significant.

C57BL6/J mice = assay: In vivo pharmacodynamic assay for non-alcoholic fatty liver disease (high-fat, high-cholesterol, high-fructose diet mice); settings: 1 mpk oral gavage once daily for 28 days
Description: Normal male C57BL6/J mice ([…]) were fed a high-fat, high-cholesterol, high-fructose diet (D09100310, Research Diets) for 20 weeks. Based on body weight and biochemical data, the mice were randomly divided into groups, with 6 mice per group. The compound 169 (0.03, 0.1, and 0.6 mg/kg) was administered via oral gavage. The positive control was MGL3196 (1 mg/kg), and the blank control group consisted of mice of the same strain and age fed a normal diet for the same duration. The blank control and model control groups were given the vehicle (15% solutol + 85% DDW), totaling 6 groups. Administration was performed once daily for 28 days. After overnight fasting, on day 29 at the experimental endpoint, blood was collected from the heart after CO2 euthanasia. Serum ALT and AST biochemical indicators were measured, and liver tissue was harvested for hepatic hydroxyproline content determination.
Blood was collected using anticoagulant-free tubes, allowed to stand at room temperature for 30 minutes, and then centrifuged at 4000 rpm for 10 minutes to separate serum, which was tested by Dian Diagnostics. Approximately 50 mg of liver tissue was taken from each mouse and tested according to the hydroxyproline assay kit method (Nanjing Jiancheng, Cat. No.: A030-2-1).
as §1

[4] = mouse, plasma, po, Gavage Administration (10 mg/kg)
[5] = mouse, plasma, po, Gavage Administration (10 mg/kg), read-out: AUC0-7 h
[6] = male, ICR, mouse, plasma, po, Gavage Administration (10 mg/kg)

T1 sequence (O14842 whole entry): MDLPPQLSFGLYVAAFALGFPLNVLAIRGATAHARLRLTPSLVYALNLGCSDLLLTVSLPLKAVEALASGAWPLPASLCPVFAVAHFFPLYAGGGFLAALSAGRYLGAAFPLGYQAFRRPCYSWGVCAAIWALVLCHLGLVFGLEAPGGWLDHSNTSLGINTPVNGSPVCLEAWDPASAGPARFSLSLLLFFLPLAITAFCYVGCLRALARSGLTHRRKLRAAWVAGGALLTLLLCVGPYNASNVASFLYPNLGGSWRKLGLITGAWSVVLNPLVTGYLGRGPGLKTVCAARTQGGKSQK

| SMILES | pEC50 (human FFAR1 (GPR40)) | Efficacy (%) (human FFAR1 (GPR40)) | CL_obs [1] [L/h/kg] | Vss_obs [1] [L/kg] | half-life ([1]; mouse, plasma) [h] | Cmax [1, 4] [µg/mL] | Tmax [1, 4] [h] | AUC(0-t) at 7 h [1, 5] [µg·h/mL] | bioavailability ([1]; mouse, plasma, po) [%] | other results |
| --- | --- | --- | --- | --- | --- | --- | --- | --- | --- | --- |
| COc1ccc(F)c(N2CCC(c3oc4cc(C(CC(=O)O)C5CC5)ccc4c3-c3ccc(C(C)(C)C)cc3)CC2)c1 (centres unmarked) [Compound 168] | 6.30 to 7.00 | ††† (Efficacy (%) > 150) | 0.126 | 0.494 | 3.9 | 3.47 | 3 | 15.4 | 24 | Plasma Concentration (ng/mL) or Tissue Concentration (ng/g): Blood [2]: 936 ng/mL; Plasma Concentration (ng/mL) or Tissue Concentration (ng/g): Heart [2]: 485 ng/g; Plasma Concentration (ng/mL) or Tissue Concentration (ng/g): Liver [2]: 1923 ng/g; Plasma Concentration (ng/mL) or Tissue Concentration (ng/g): Plasma [2]: 1550 ng/mL |
| COc1cccc(N2CCC(c3oc4cc([C@@H](CC(=O)O)C5CC5)ccc4c3-c3ccc(C(C)(C)C)cc3)CC2)c1 [Compound 14] | 7.00 to 8.00 | ††† (Efficacy (%) > 150) |  |  |  |  |  |  |  | Blood Glucose (normal C57BL6/J mice; 0 minutes after glucose (2 g/kg)): 7.58 ± 0.59 mmol/L; Blood Glucose (normal C57BL6/J mice; 15 minutes after glucose (2 g/kg)): 11.08 ± 2.04 mmol/L; Blood Glucose (normal C57BL6/J mice; 30 minutes after glucose (2 g/kg)): 9.17 ± 1.37 mmol/L; Blood Glucose (normal C57BL6/J mice; 60 minutes after glucose (2 g/kg)): 7.6 ± 1.34 mmol/L; Blood Glucose (normal C57BL6/J mice; 90 minutes after glucose (2 g/kg)): 6.52 ± 2 mmol/L; Blood Glucose (normal C57BL6/J mice; 120 minutes after glucose (2 g/kg)): 5.87 ± 1.13 mmol/L; AUC 0-120 minutes (normal C57BL6/J mice; 1 mg/kg): 941±62.00; AUC 0-120 minutes (normal C57BL6/J mice; listed as compound 14, 1 mg/kg): significantly reduced |
| COc1ccc(F)c(N2CCC(c3oc4cc(C(CC(=O)O)C5CC5)ccc4c3-c3cccc(C(C)(C)C)c3)CC2)c1 (centres unmarked) [Compound 165] | 6.30 to 7.00 | ††† (Efficacy (%) > 150) |  |  |  |  |  |  |  | Plasma Concentration (ng/mL) or Tissue Concentration (ng/g): Blood [2]: 842 ng/mL; Plasma Concentration (ng/mL) or Tissue Concentration (ng/g): Heart [2]: 418 ng/g; Plasma Concentration (ng/mL) or Tissue Concentration (ng/g): Liver [2]: 1548 ng/g; Plasma Concentration (ng/mL) or Tissue Concentration (ng/g): Plasma [2]: 1290 ng/mL |
| COc1ccc(Cl)cc1C(=O)NCCc1ccc(S(=O)(=O)NC(=O)NC2CCCCC2)cc1 [Glibenclamide, reference compound] |  |  |  |  |  |  |  |  |  | AUC0-120 minutes (mmol*min) [3]: 492±50.30** mmol*min |
| COc1cccc(N2CCC(c3oc4cc([C@@H](CC(=O)O)C5CC5)ccc4c3-c3cnn(C(C)(C)C)c3)CC2)c1 [Compound 38] | 7.00 to 8.00 | ††† (Efficacy (%) > 150) | 0.138 | 0.405 | 2.41 | 8.6 | 2 | 55.4 | 77.4 |  |
| CC(C)c1cc(Oc2c(Cl)cc(-n3nc(C#N)c(=O)[nH]c3=O)cc2Cl)n[nH]c1=O [MGL3196, reference compound] |  |  |  |  |  |  |  |  |  | Hepatic Hydroxyproline (C57BL6/J mice; liver): 173.63 ± 32.06 µg/g; Total Liver Hydroxyproline (µg/liver) (C57BL6/J mice; liver): 313.58±98.24 µg/liver; ALT (U/L) (C57BL6/J mice; serum): 140±63.06 U/L; AST (U/L) (C57BL6/J mice; serum): 242±67.42 U/L |
| COc1ccc(F)c(N2CCC(c3oc4cc([C@@H](CC(=O)O)C5CC5)ccc4c3-c3cnn(C(C)(C)C)c3)CC2)c1 [Compound 89] | 6.30 to 7.00 | †† (150 ≥ Efficacy (%) > 100) | 0.078 | 0.546 |  |  |  |  |  | half-life ([1]; male, ICR, mouse, plasma): 5.46 h; bioavailability ([1]; male, ICR, mouse, plasma, oral): 73.7%; Cmax [1, 6]: 11.1 µg/mL; Tmax [1, 6]: 2 h; AUC(0-t) ([1]; male, ICR, mouse, plasma, po, Gavage Administration (10 mg/kg), read-out: AUC0-7 h): 92.2 µg·h/mL |
| COc1cccc(N2CCC(c3oc4cc([C@@H](CC(=O)O)C5CC5)ccc4c3-c3cccc(C(C)(C)C)c3)CC2)c1 [Compound 12] | 7.00 to 8.00 | †† (150 ≥ Efficacy (%) > 100) | 0.114 | 0.52 | 5.02 | 6.58 | 2 | 38 | 44.6 |  |
| COc1ccc(F)c(N2CCC(c3oc4cc([C@@H](CC(=O)O)C5CC5)ccc4c3-c3cccc(C(C)(C)C)c3)CC2)c1 [Compound 166] | 7.00 to 8.00 | †† (150 ≥ Efficacy (%) > 100) | 0.096 | 0.668 | 6.7 | 4.95 | 4 | 48.1 | 48 |  |
| COc1ccnc(N2CCC(c3oc4cc(C(CC(=O)O)C5CC5)ccc4c3-c3cnn(C(C)(C)C)c3)CC2)c1 (centres unmarked) [Compound 83] | 6.30 to 7.00 | † (100 ≥ Efficacy (%) > 50) |  |  |  |  |  |  |  |  |
| COc1ccc(C(=O)Nc2cccc(C)n2)c(N2CCC(c3oc4cc(C(CC(=O)O)C5CC5)ccc4c3-c3cnn(C(C)(C)C)c3)CC2)c1 (centres unmarked) [Compound 94] | 6.30 to 7.00 | † (100 ≥ Efficacy (%) > 50) |  |  |  |  |  |  |  |  |
